Laboratory results from PubChem BioAssay AID1963431 (Molecular Pharmacology Branch, DTP, NCI, 2024).

Test system: Rh18 complex spheroid viability, percent test/control
Assay: Anticancer human tumor Rh18 cell line growth inhibition [Asc];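 also: spheroids exposed to compound for 7 days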;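 as to viability, T/C: 100% = DMSO vehicle control wells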
Conditions: for IC50: curve of first compound; for viability, T/C: stronger effect = lower value
Summary of the method: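 Complex spheroids combining tumor cells with HUVEC endothelial cells and human MSCs, at 37 degrees C, 5% CO2; agents tested alone or combined, half-log dilutions from at or near clinical Cmax, or 10 microM if Cmax unknown.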

[1] = second compound 0.1 µM, first compound 0.0316 µM
[2] = second compound 0.1 µM, first compound 0.1 µM
[3] = second compound 0.1 µM, first compound 0.316 µM
[4] = second compound 0.1 µM, first compound 1 µM
[5] = second compound 0.316 µM, first compound 0.0316 µM
[6] = second compound 0.316 µM, first compound 0.1 µM
[7] = second compound 0.316 µM, first compound 0.316 µM
[8] = second compound 0.316 µM, first compound 1 µM
[9] = second compound 1 µM, first compound 0.0316 µM
[10] = second compound 1 µM, first compound 0.1 µM
[11] = second compound 1 µM, first compound 0.316 µM
[12] = second compound 1 µM, first compound 1 µM

In the case of `O=C(c1cc(Cc2n[nH]c(=O)c3ccccc23)ccc1F)N1CCN(C(=O)C2CC2)CC1` + CCN1C(C(=O)NC23CCC(C(=O)O)(CC2)CC3)C(c2cccc(Cl)c2F)C2(C(=O)Nc3cc(Cl)ccc32)C12CCCCC2, the IC50 (second compound 0.03 µM) is reported as under 31.6 nM, the IC50 (second compound 0.0949 µM) is reported as under 31.6 nM and the IC50 (second compound 0.3 µM) is reported as under 31.6 nM. It also gave an IC50 (second compound 0.949 µM) of under 31.6 nM, an IC50 (second compound 3 µM) of under 31.6 nM and a viability, T/C (second compound 0.03 µM, first compound 0.0316 µM) of 49.4%. It also gave a viability, T/C (second compound 0.03 µM, first compound 0.1 µM) of 38.6%, a viability, T/C (second compound 0.03 µM, first compound 0.316 µM) of 43.2% and a viability, T/C (second compound 0.03 µM, first compound 1 µM) of 41.7%. For the same compound, the viability, T/C (second compound 0.03 µM, first compound 3.16 µM) was 40.7%, the viability, T/C (second compound 0.03 µM, first compound 10 µM) was 46.3% and the viability, T/C (second compound 0.0949 µM, first compound 0.0316 µM) was 26.5%. For the same compound, the viability, T/C (second compound 0.0949 µM, first compound 0.1 µM) was 26.8%, the viability, T/C (second compound 0.0949 µM, first compound 0.316 µM) was 28.7% and the viability, T/C (second compound 0.0949 µM, first compound 1 µM) was 29%. For the same compound, the viability, T/C (second compound 0.0949 µM, first compound 3.16 µM) was 25.1%, the viability, T/C (second compound 0.0949 µM, first compound 10 µM) was 23.7% and the viability, T/C (second compound 0.3 µM, first compound 0.0316 µM) was 14.2%. The viability, T/C (second compound 0.3 µM, first compound 0.1 µM) was 13.7%, the viability, T/C (second compound 0.3 µM, first compound 0.316 µM) was 14.7% and the viability, T/C (second compound 0.3 µM, first compound 1 µM) was 12.3%. The viability, T/C (second compound 0.3 µM, first compound 3.16 µM) was 11.6%, the viability, T/C (second compound 0.3 µM, first compound 10 µM) was 12.4% and the viability, T/C (second compound 0.949 µM, first compound 0.0316 µM) was 10.5%. It also gave a viability, T/C (second compound 0.949 µM, first compound 0.1 µM) of 11.3%, a viability, T/C (second compound 0.949 µM, first compound 0.316 µM) of 10.7% and a viability, T/C (second compound 0.949 µM, first compound 1 µM) of 10.2%. It also gave a viability, T/C (second compound 0.949 µM, first compound 3.16 µM) of 9.53%, a viability, T/C (second compound 0.949 µM, first compound 10 µM) of 9.36% and a viability, T/C (second compound 3 µM, first compound 0.0316 µM) of 10.4%. For the same compound, the viability, T/C (second compound 3 µM, first compound 0.1 µM) was 8.17%, the viability, T/C (second compound 3 µM, first compound 0.316 µM) was 9.35% and the viability, T/C (second compound 3 µM, first compound 1 µM) was 10.7%. The viability, T/C (second compound 3 µM, first compound 3.16 µM) was 9% and the viability, T/C (second compound 3 µM, first compound 10 µM) was 8.64%.

With `C=CC(=O)N1CCN(c2nc(=O)n(-c3c(C)ccnc3C(C)C)c3nc(-c4c(O)cccc4F)c(F)cc23)C(C)C1` (stereo not given) + Cc1c(S(C)(=O)=O)c(-c2cc(F)cc(N3CCN(c4ccc(NS(=O)(=O)c5ccc(NC(CCN6CCC(C(=O)OCCCP(=O)(O)O)CC6)CSc6ccccc6)c(S(=O)(=O)C(F)(F)F)c5)cc4)CC3)c2)c(-c2ccc(Cl)cc2)n1C(C)C the IC50 (second compound 0.1 µM) was under 31.6 nM, the IC50 (second compound 0.316 µM) was under 31.6 nM and the IC50 (second compound 1 µM) was under 31.6 nM. It also gave an IC50 (second compound 3.16 µM) of under 31.6 nM, an IC50 (second compound 10 µM) of under 31.6 nM and a viability, T/C [1] of 15.2%. It also gave a viability, T/C [2] of 17%, a viability, T/C [3] of 15.5% and a viability, T/C [4] of 19%. The viability, T/C (second compound 0.1 µM, first compound 3.16 µM) was 20.8%, the viability, T/C (second compound 0.1 µM, first compound 10 µM) was 29.2% and the viability, T/C [5] was 11.4%. It also gave a viability, T/C [6] of 11.5%, a viability, T/C [7] of 11.4% and a viability, T/C [8] of 12.6%. It also gave a viability, T/C (second compound 0.316 µM, first compound 3.16 µM) of 15.1%, a viability, T/C (second compound 0.316 µM, first compound 10 µM) of 17.5% and a viability, T/C [9] of 8.27%. The viability, T/C [10] was 8.47%, the viability, T/C [11] was 8.62% and the viability, T/C [12] was 7.63%. For the same compound, the viability, T/C (second compound 1 µM, first compound 3.16 µM) was 11.4%, the viability, T/C (second compound 1 µM, first compound 10 µM) was 15% and the viability, T/C (second compound 3.16 µM, first compound 0.0316 µM) was 6.03%. The viability, T/C (second compound 3.16 µM, first compound 0.1 µM) was 8.21%, the viability, T/C (second compound 3.16 µM, first compound 0.316 µM) was 7.26% and the viability, T/C (second compound 3.16 µM, first compound 1 µM) was 8.5%. For the same compound, the viability, T/C (second compound 3.16 µM, first compound 3.16 µM) was 7.74%, the viability, T/C (second compound 3.16 µM, first compound 10 µM) was 13.2% and the viability, T/C (second compound 10 µM, first compound 0.0316 µM) was 3.36%. It also gave a viability, T/C (second compound 10 µM, first compound 0.1 µM) of 5.72%, a viability, T/C (second compound 10 µM, first compound 0.316 µM) of 4.34% and a viability, T/C (second compound 10 µM, first compound 1 µM) of 7.21%. For the same compound, the viability, T/C (second compound 10 µM, first compound 3.16 µM) was 5.57% and the viability, T/C (second compound 10 µM, first compound 10 µM) was 13%.

Compound `COc1c(OCCCN2CCOCC2)ccc2c3n(c(=NC(=O)c4cnc(N)nc4)nc12)CCN3` + CNC(C)C(=O)NC1CN(S(=O)(=O)c2cccc(S(=O)(=O)N3CCC4CCC(C(=O)NC(c5ccccc5)c5ccccc5)N4C(=O)C(NC(=O)C(C)NC)C3)c2)CCC2CCC(C(=O)NC(c3ccccc3)c3ccccc3)N2C1=O has an IC50 (second compound 0.01 µM) of 4.1 nM, an IC50 (second compound 0.0316 µM) of under 3.16 nM and an IC50 (second compound 0.1 µM) of under 3.16 nM. The IC50 (second compound 0.316 µM) was under 3.16 nM, the IC50 (second compound 1 µM) was under 3.16 nM and the viability, T/C (second compound 0.01 µM, first compound 0.00316 µM) was 56.5%. For the same compound, the viability, T/C (second compound 0.01 µM, first compound 0.01 µM) was 28.1%, the viability, T/C (second compound 0.01 µM, first compound 0.0316 µM) was 13.5% and the viability, T/C (second compound 0.01 µM, first compound 0.1 µM) was 5.19%. The viability, T/C (second compound 0.01 µM, first compound 0.316 µM) was 1.61%, the viability, T/C (second compound 0.01 µM, first compound 1 µM) was 0.4% and the viability, T/C (second compound 0.0316 µM, first compound 0.00316 µM) was 38.4%. The viability, T/C (second compound 0.0316 µM, first compound 0.01 µM) was 26.1%, the viability, T/C (second compound 0.0316 µM, first compound 0.0316 µM) was 8.33% and the viability, T/C (second compound 0.0316 µM, first compound 0.1 µM) was 2.99%. The viability, T/C (second compound 0.0316 µM, first compound 0.316 µM) was 2.16%, the viability, T/C (second compound 0.0316 µM, first compound 1 µM) was 0.41% and the viability, T/C (second compound 0.1 µM, first compound 0.00316 µM) was 37.3%. It also gave a viability, T/C (second compound 0.1 µM, first compound 0.01 µM) of 27.9%, a viability, T/C [1] of 9.81% and a viability, T/C [2] of 2.85%. The viability, T/C [3] was 1.49%, the viability, T/C [4] was 0.35% and the viability, T/C (second compound 0.316 µM, first compound 0.00316 µM) was 31.4%. For the same compound, the viability, T/C (second compound 0.316 µM, first compound 0.01 µM) was 22.4%, the viability, T/C [5] was 9.6% and the viability, T/C [6] was 2.64%. The viability, T/C [7] was 1.51%, the viability, T/C [8] was 0.29% and the viability, T/C (second compound 1 µM, first compound 0.00316 µM) was 27.5%. It also gave a viability, T/C (second compound 1 µM, first compound 0.01 µM) of 20.3%, a viability, T/C [9] of 6.75% and a viability, T/C [10] of 3.45%. For the same compound, the viability, T/C [11] was 1.17% and the viability, T/C [12] was 0.36%.
